{"source": "patent US8288412B2", "about": "“Compounds which have activity at M1 receptor and their uses in medicine” (Glaxo Group Limited, priority 2005, dated 2012)", "origin": "cited, not measured here", "key": {"[1]": {"conditions": "unilateral 6-OH-DA lesioned rats"}, "[2]": {"conditions": "monkeys"}, "[3]": {"conditions": "rats"}, "[4]": {"conditions": "mice"}}, "data": [{"smiles": "CCCCCCOc1nsnc1C1=CCCN(C)C1", "note": "[xanomeline]", "values": [{"measurement": "dopamine agonist driven turning", "setting": "[1]", "result": "reverses"}, {"measurement": "psychotic symptoms such as suspiciousness, hallucinations and delusions", "setting": "Alzheimer's patients", "result": "reduce psychotic symptoms"}, {"measurement": "side effects", "setting": "patients", "result": "dose-limiting peripheral cholinergic side effects"}, {"measurement": "amphetamine-induced motor unrest", "setting": "[2]", "result": "reverses"}, {"measurement": "amphetamine induced locomotion", "setting": "[3]", "result": "reverses"}, {"measurement": "apomorphine induced climbing", "setting": "[4]", "result": "reverses"}]}]}
